Results on ten compounds are retold here after ChEMBL document CHEMBL1201862, “PubChem BioAssay data set” (2004).

Among the test systems are A498; A549; BT-549; CCRF-CEM; HCT-116; HOP-62; HOP-92; KM12; MCF7; MDA-MB-231; MDA-MB-435; MDA-N; NCI-H23; RXF 393; SF-295; SK-MEL-5; SN12C; SNB-75; T47D; UACC-257.
Holding throughout (assay): inhibition of tumour cell growth, NCI panel, 48 h

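Method: 48-hour compound exposure of cells in 96-well plates, five concentrations, linear interpolation of endpoints. Abbreviation: GI50, concentration required for 50% inhibition of growth.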 The source made the active and inactive calls. Rule as the data show it: active = GI50 up to about 1.1 µM and inactive = higher.

As for `Cc1n[nH]c(=O)n1-n1cccc1`, the GI50 with A498, in the assay on A549, with BT-549, with CCRF-CEM, with HCT-116 and in the assay on HOP-62 was > 100 µM (inactive) in each case. The GI50 in the assay with HOP-92, with KM12, in the assay with MCF7, in the assay on MDA-MB-231, with MDA-MB-435 and in the assay on MDA-N was > 100 µM (inactive) each time. For the same compound, the GI50 in the assay with NCI-H23, in the assay on RXF 393, with SF-295, in the assay on SK-MEL-5, in the assay on SN12C and in the assay on SNB-75 was > 100 µM (inactive) in each case. Further, the GI50 in the assay with T47D and with UACC-257 was > 100 µM (inactive) in each case.
As to `O=C(O)CC12CC3CC(CC(O)(C3)C1)C2`, the GI50 in the assay with A498, with A549, in the assay on BT-549, in the assay with HCT-116, in the assay with HOP-62 and in the assay with HOP-92 was > 100 µM (inactive) in each case. For the same compound, the GI50 in the assay with KM12, in the assay on MCF7, with MDA-MB-231, in the assay on MDA-MB-435, in the assay with MDA-N and with NCI-H23 was > 100 µM (inactive) in each case. Also, the GI50 with RXF 393, in the assay with SF-295, in the assay with SK-MEL-5, in the assay with SN12C, in the assay on SNB-75 and with T47D was > 100 µM (inactive) each time. Besides, the GI50 in the assay on UACC-257 is > 100 µM (inactive).
Turning to `c1c[nH]c(CN2CCN(Cc3ncc[nH]3)CC2)n1`, the GI50 with A498, with A549, in the assay on BT-549, in the assay with CCRF-CEM, in the assay with HCT-116 and with HOP-62 was > 100 µM (inactive) throughout. For the same compound, the GI50 with HOP-92, with KM12, in the assay on MCF7, in the assay on MDA-MB-231, in the assay with MDA-MB-435 and in the assay with MDA-N was > 100 µM (inactive) each time. Besides, the GI50 with NCI-H23, with RXF 393, in the assay with SF-295, in the assay on SK-MEL-5, in the assay on SN12C and with SNB-75 was > 100 µM (inactive) each time. In addition, the GI50 with T47D and with UACC-257 was > 100 µM (inactive) in each case.
Consider `COc1ccc(-c2cc(=O)c3c(OC)c(OC)c(OC)c(OC)c3o2)c(OC)c1`, for which the GI50 with A498 is 21.6 µM (inactive); in the assay with A549 it was 32.6 µM (inactive); in the assay on BT-549 it was 31 µM (inactive); in the assay with CCRF-CEM it was 33.8 µM (inactive); in the assay on HCT-116, 21.6 µM (inactive); with HOP-62, 26.7 µM (inactive). Further, the GI50 with HOP-92 was 14 µM (inactive); in the assay on MCF7, 20.5 µM (inactive); in the assay with MDA-MB-231 it was 25.1 µM (inactive); with MDA-MB-435, 24.6 µM (inactive); in the assay with MDA-N, 29.1 µM (inactive); in the assay with NCI-H23 it was 16.9 µM (inactive). Moreover, the GI50 with RXF 393 was 36.7 µM (inactive); with SF-295, 18.4 µM (inactive); in the assay on SK-MEL-5, 16 µM (inactive); with SN12C, 20.6 µM (inactive); in the assay with SNB-75 it was 15.6 µM (inactive); in the assay on T47D, 8.65 µM (inactive). Further, the GI50 in the assay with UACC-257 is 20 µM (inactive).
As for `CCOC(=O)NC(Nc1ccc(F)c(F)c1)(C(=O)OCC)C(F)(F)F` (stereo not given), the GI50 in the assay with A498 was > 100 µM (inactive); in the assay with A549, > 100 µM (inactive); in the assay on BT-549 it was > 100 µM (inactive); with CCRF-CEM, > 100 µM (inactive); in the assay on HCT-116, > 40.8 µM (inactive); with HOP-62, > 100 µM (inactive). Further, the GI50 was > 100 µM (inactive) in the assay on HOP-92; 3.23 µM (inactive) in the assay on KM12; > 100 µM (inactive) with MCF7; > 100 µM (inactive) in the assay on MDA-MB-231; 5.69 µM (inactive) in the assay with MDA-MB-435; > 100 µM (inactive) in the assay on MDA-N. In addition, the GI50 in the assay with NCI-H23 was > 100 µM (inactive); with RXF 393, > 100 µM (inactive); with SF-295, 74 µM (inactive); in the assay with SK-MEL-5 it was 13.8 µM (inactive); in the assay with SN12C it was > 100 µM (inactive); with SNB-75 it was 98.9 µM (inactive). Moreover, the GI50 in the assay with T47D is 18.2 µM (inactive); in the assay with UACC-257, > 100 µM (inactive).
Turning to `CN(Cc1c2ccccc2cc2ccccc12)S(=O)(=O)c1ccc(-c2c3nc(c(-c4ccc(S(=O)(=O)N(C)Cc5c6ccccc6cc6ccccc56)cc4)c4ccc([nH]4)c(-c4ccc(S(=O)(=O)N(C)Cc5c6ccccc6cc6ccccc56)cc4)c4nc(c(-c5ccc(S(=O)(=O)N(C)Cc6c7ccccc7cc7ccccc67)cc5)c5ccc2[nH]5)C=C4)C=C3)cc1`, the GI50 with A498 is > 100 µM (inactive); in the assay on A549, > 100 µM (inactive); in the assay with BT-549, > 100 µM (inactive); in the assay with CCRF-CEM, > 100 µM (inactive); in the assay on HCT-116, > 100 µM (inactive); with HOP-62, 30.3 µM (inactive). In addition, the GI50 in the assay on HOP-92 was 29.2 µM (inactive); in the assay on KM12, > 100 µM (inactive); with MCF7, > 100 µM (inactive); in the assay with MDA-MB-231 it was > 100 µM (inactive); in the assay on MDA-MB-435 it was > 100 µM (inactive); with MDA-N, > 100 µM (inactive). Besides, the GI50 in the assay with NCI-H23 is > 100 µM (inactive); in the assay on RXF 393, 42.1 µM (inactive); in the assay with SF-295, 63.7 µM (inactive); in the assay on SK-MEL-5 it was > 100 µM (inactive); with SN12C, > 100 µM (inactive); in the assay on SNB-75, 24.4 µM (inactive). The GI50 in the assay with T47D and with UACC-257 was > 100 µM (inactive) in each case.
For `O=S(=O)(O)c1cc(O)c(/N=N\C2S(=O)(=O)OCCOS2(=O)=O)c2ccccc12`, the GI50 in the assay with A498 is > 100 µM (inactive); in the assay on A549, > 100 µM (inactive); in the assay with BT-549, > 100 µM (inactive); in the assay on CCRF-CEM, 28.8 µM (inactive); in the assay with HCT-116, > 100 µM (inactive); in the assay with HOP-62, 43.6 µM (inactive). Also, the GI50 in the assay with HOP-92, in the assay with KM12, with MCF7, with MDA-MB-231, in the assay with MDA-MB-435 and with MDA-N was > 100 µM (inactive) throughout. The GI50 in the assay on NCI-H23 was > 100 µM (inactive); in the assay on RXF 393, > 100 µM (inactive); with SF-295 it was 51.4 µM (inactive); with SK-MEL-5, > 100 µM (inactive); in the assay on SN12C it was > 100 µM (inactive); with SNB-75, 25.6 µM (inactive). For the same compound, the GI50 in the assay with T47D and in the assay on UACC-257 was > 100 µM (inactive) throughout.
Regarding `COC(=O)/C=C(/C=C1/C(C#N)=C(N)N(c2ccc(Cl)cc2)C1(C)/C(=C\C(=O)OC)C(=O)OC)C(=O)OC` (stereo not given), the GI50 in the assay on A498 was 44.8 µM (inactive); in the assay with A549 it was 28.2 µM (inactive); with BT-549, 15.7 µM (inactive); in the assay on CCRF-CEM, 16.3 µM (inactive); with HCT-116, 15.8 µM (inactive); in the assay on HOP-62 it was 35.9 µM (inactive). The GI50 was 5.71 µM (inactive) with HOP-92; 17.2 µM (inactive) with KM12; 20.7 µM (inactive) in the assay with MCF7; 29.2 µM (inactive) in the assay with MDA-MB-231; 18.5 µM (inactive) with MDA-MB-435; 16.2 µM (inactive) in the assay on MDA-N. The GI50 with NCI-H23 is 19.2 µM (inactive); in the assay on RXF 393, 19.2 µM (inactive); with SF-295, 22.8 µM (inactive); in the assay on SK-MEL-5 it was 15.1 µM (inactive); in the assay on SN12C it was 21.6 µM (inactive); in the assay with SNB-75, 25.6 µM (inactive). Besides, the GI50 with T47D is 18.3 µM (inactive); in the assay on UACC-257, 18.9 µM (inactive).
On to `CC(=O)OCc1cn(S(=O)(=O)c2ccc(C)cc2)cn1`, for which the GI50 with A498 was > 100 µM (inactive); in the assay with A549 it was 84.5 µM (inactive); with BT-549, > 100 µM (inactive); in the assay on CCRF-CEM, 26.7 µM (inactive); with HCT-116, 24 µM (inactive); in the assay with HOP-62, > 100 µM (inactive). Further, the GI50 in the assay on HOP-92 is > 100 µM (inactive); with MCF7, 25.2 µM (inactive); in the assay on MDA-MB-231, > 100 µM (inactive); in the assay with MDA-MB-435, 19.6 µM (inactive); in the assay with MDA-N, 12.5 µM (inactive); with NCI-H23, > 100 µM (inactive). In addition, the GI50 is > 100 µM (inactive) in the assay with RXF 393; > 100 µM (inactive) in the assay with SF-295; 46.9 µM (inactive) in the assay on SK-MEL-5; > 100 µM (inactive) in the assay with SN12C; > 100 µM (inactive) in the assay on SNB-75; > 100 µM (inactive) with T47D.
For the compound `C=CCNC1=C2C[C@@H](C)C[C@@H](OC)[C@H](OC(=O)CCN)[C@H](C)/C=C(\C)[C@@H](OC(N)=O)[C@H](OC)/C=C\C=C(/C)C(=O)NC(=CC1=O)C2=O`, the GI50 was 3.61 µM (inactive) in the assay with A498; 3.4 µM (inactive) in the assay with A549; 7.45 µM (inactive) with BT-549; 3.53 µM (inactive) in the assay on HCT-116; 3.53 µM (inactive) with HOP-62; 4.49 µM (inactive) in the assay with HOP-92. Besides, the GI50 is 1.79 µM (inactive) with KM12; 0.703 µM (active) in the assay with MCF7; 5.19 µM (inactive) with MDA-MB-231; 2.98 µM (inactive) in the assay on MDA-MB-435; 1.21 µM (inactive) in the assay with MDA-N; 3.01 µM (inactive) in the assay with NCI-H23. For the same compound, the GI50 was 4.66 µM (inactive) with RXF 393; 3.75 µM (inactive) in the assay with SF-295; 4.12 µM (inactive) with SK-MEL-5; 2.34 µM (inactive) in the assay with SN12C; 3.18 µM (inactive) in the assay on SNB-75; 4.89 µM (inactive) in the assay on T47D. Also, in the assay with UACC-257, the GI50 was 2.42 µM (inactive).
